# Laboratory results: US20240108740A1, “THERAPEUTIC COMPOSITIONS INCLUDING SPN10 AND USES THEREOF” (Stealth BioTherapeutics Inc., priority 2022, published 2024)
# Residues, ends and D or L forms follow the SMILES beside them.
# Columns and labels:
# [1] = system: fatty (fa/fa) Zucker rats; assay: Example 36: insulin resistance in fatty Zucker rats; assay type: in vivo, rat; settings: approximately 6 weeks
# Description: Peptide conjugates (1.0-5.0 mg/kg body wt); aromatic-cationic peptides (an equivalent molar dose of aromatic-cationic peptide based on the concentration of the aromatic-cationic peptide administered in the peptide conjugate treatment group); SPN10(s) (an equivalent molar dose of SPN10 based on the concentration of SPN10 administered in the peptide conjugate treatment group); or SPN10(s) in combination with aromatic-cationic peptides (e.g., an equivalent molar dose of SPN10 based on the concentration of SPN10 administered in the peptide conjugate treatment group and an equivalent molar dose of aromatic-cationic peptide based on the concentration of aromatic-cationic peptide administered in the peptide conjugate treatment group) will be administered to the rats intraperitoneally (i.p.) or orally (drinking water or oral gavage).
# Physiological parameters measured will include body weight, fasting glucose/insulin/free fatty acid, oral glucose tolerance (OGTT), in vitro muscle insulin sensitivity (in vitro incubation), biomarkers of insulin signaling (Akt-P, IRS-P), mitochondrial function studies on permeabilized fibers (respiration, H2O2 production), biomarkers of intracellular oxidative stress (lipid peroxidation, GSH/GSSG ratio, aconitase activity), and mitochondrial enzyme activity. Control animals will include wild-type and untreated fatty rats. […]
# vincristine-related pain = assay: Treatment of vincristine-induced hyperalgesia in humans; assay type: in vivo, human; settings: s.c., once daily for 14 days
# From the text: Patients will be recruited to the study as they present in clinic with chronic (>6 months' duration), spontaneous, ongoing, vincristine-related pain. Those enrolled will rate their daily maximum level of pain at 4 or greater on a visual analogue scale (VAS). The patients will be screened for their willingness to enroll in the study, and informed consent will be obtained. Healthy subjects will also be recruited for collection of comparison data. No subjects in either the patient or comparison group will have known risk factors for any other cause of peripheral neuropathy, including diabetes, AIDS, chronic alcoholism, or previous radiation exposure. […] Touch and Sharpness Detection Thresholds-Touch detection thresholds will be determined with von Frey monofilaments using the up/down method as previously reported. […] The force of the filament detected four consecutive times will be assigned as the touch detection threshold. Sharpness detection will be determined using weighted 30-gauge metal cylinders. […] The percentages of each reply will be calculated and then combined into group grand means for comparison. The 50% sharpness detection threshold will be calculated as the weighted needle that caused five or more sharp responses after 10 consecutive stimuli. Grooved Pegboard Test-Manual dexterity will be assessed with the grooved pegboard test. […]
compound,measurement,setting,value
"N=C(N)NCCC[C@H](NC(=O)[C@@H](N)Cc1c[nH]c2ccccc12)C(=O)N[C@@H](Cc1c[nH]c2ccccc12)C(=O)N[C@@H](CCCCN)C(N)=O [SPN10, H-L-Trp-L-Arg-L-Trp-L-Lys-NH2] (H-WRWK-NH2)",whole body and muscle insulin resistance (treatment),[1]; Zucker rats (~12 weeks of age),reduce the whole body and muscle insulin resistance
same,development of whole body and muscle insulin resistance (prevention),[1]; young Zucker rats (~3-4 weeks of age),attenuate or prevent the development of whole body and muscle insulin resistance
same,hyperalgesia symptoms,vincristine-related pain,reduction
